Values of other authors, collected in patent US20260207703A1 (priority 2023, published 2026).

Settings: in vivo

Compound	half-life
C=CCN1CC[C@]23c4c5ccc(O)c4O[C@H]2C(=O)CC[C@@]3(O)[C@H]1C5 [Naloxone]	~ 1 hr.
C=C1CC[C@@]2(O)[C@H]3Cc4ccc(O)c5c4[C@@]2(CCN3CC2CC2)[C@H]1O5 [nalmefene, 17-cyclopropylmethyl-4,5α-epoxy-6-methylenemorphinan-3,14-diol]	8 to 11 h
